From patent publication US20100160454A1, “ANTIMICROBIAL AGENTS, COMPOSITIONS AND PRODUCTS CONTAINING THE SAME, AND METHODS OF USING THE COMPOSITIONS AND PRODUCTS” (Eastman Chemical Company, priority 2008, published 2010)

How the values were obtained:
[1] = test system: Streptococcus faecalis; test: Determination of MIC and MLC in test broth; assay type: cell-based; conditions: 30-day subculture
Experimental: (§1) Two antimicrobial endpoints were investigated. The minimum inhibitory concentration (MIC), which identifies the lowest concentration of test material at which growth for a specific organism is inhibited (by a minimum of 3 log units), reflects “biostatic activity”. The minimum lethal concentration (MLC), or lowest concentration that kills the organism and at which subculturing with growth is not possible, reflects “biocidal activity”. 1,4-CHDM and propylene glycol (PG) were added to previously sterilized screw-cap glass tubes and diluted with Peptone Water Broth with 2 wt % Dextrose (=test broth) to the following dilutions (weight percent): 0.05, 0.075, 0.125, 0.25, 0.5, 0.75, 1.25, 2.5, 5.0, 7.5, 10.0, 15.0, 20.0.
(§2) Each of 12 sets of the above test tubes were challenged with specific organisms (see Table 5) to produce a contamination of between 1.0×10^5 cfu/g and 1.0×10^6 cfu/g in the test broth to which no 1,4-CHDM or propylene glycol had been added. These challenge organisms were prepared in TSB broth, allowed to grow for 72 hours at 35° C.+/−2° C., centrifuged at 2500 rpm for 5 minutes, and the supernatant broth was removed. The microbial pellet was then re-diluted with sterile buffered water to a turbidity that matched previous 1.0×10^6 cfu/g concentrations of that organism's specific growth curve. This challenge was repeated on day 3. Plate counts of both challenges enumerated to within 1.0×10^5+/−5,000 cfu/g after 7 days incubation at 35° C.+/−2° C.
(§3) These tubes were mixed well by inversion (minimum of 25 inversions) and incubated at 35° C.+/−2° C. The tubes were inverted again (minimum of 25 times) on the third and seventh day of incubation and prior to each subculture.
(§4) These subcultures were incubated under optimal conditions and nutrition for no less than 5 days. Subcultures of 0.1 ml, undiluted and diluted 1:10, 1:100, . . . , and 1:10,000, were transferred to plates using the spread plate method onto Plate Count Agar; and SAB Dextrose Agar in addition for the Candida and Aspergillus species; and incubated as follows: 35° C.+/−2° C. for the Plate Count Agar and 22° C.+/−2° C. for the SAB Dextrose plates of Candida albicans and Aspergillus niger. Negative results were not reported before 7 days incubation and counts were performed after no less than 5 days incubation. Counts of Candida and Aspergillus species were made on the agar representing the highest count observed, usually the SAB Dextrose.

[2] = test system: Proteus vulgaris; test: Determination of MIC and MLC in test broth; assay type: cell-based; conditions: 30-day subculture
Experimental: as §1, §2, §3, §4

[3] = test system: Staphylococcus aureus ATCC 25923; test: Determination of MIC and MLC in test broth; assay type: cell-based; conditions: Staphylococcus aureus ATCC 25923, 30-day subculture
Experimental: as §1, §2, §3, §4

[4] = test system: Aspergillus niger ATCC 16404; test: Determination of MIC and MLC in test broth; assay type: cell-based; conditions: Aspergillus niger ATCC 16404, 30-day subculture
Experimental: as §1, §2, §3, §4

[5] = test system: Candida albicans ATCC 10231; test: Determination of MIC and MLC in test broth; assay type: cell-based; conditions: Candida albicans ATCC 10231, 30-day subculture
Experimental: as §1, §2, §3, §4

[6] = test system: Pseudomonas aeruginosa ATCC 27853; test: Determination of MIC and MLC in test broth; assay type: cell-based; conditions: Pseudomonas aeruginosa ATCC 27853, 30-day subculture
Experimental: as §1, §2, §3, §4

[7] = Water extraction of 1,4-CHDM from biodiesel, gas chromatography; assay type: physicochemical; conditions: soy biodiesel with theoretical 0.024 wt % CHDM, 0.90% water added, 3 days, centrifuged
Experimental: A solution of 59.5 wt % 1,4-CHDM in ethoxydiglycol (Eastman DE solvent) was prepared by weighing into a vial 1.36 g ethoxydiglycol and 2.00 g 1,4-CHDM. The mixture was heated to 55° C. to melt the 1,4-CHDM, mixed on a vortex mixer, then placed on a rocker mixer overnight at room temperature to allow all of the 1,4-CHDM to dissolve.
1,4-CHDM was added to soy biodiesel as follows: 60.00 g soy biodiesel was weighed into 4-oz jar. 0.0246 g of the above CHDM/DE solution was weighed into the biodiesel. The sample was mixed using a magnetic stirrer. There was no visible separation after mixing and the biodiesel remained clear. The theoretical amount of CHDM in the biodiesel is 0.024 wt %. 5.00 g was removed from the sample for analysis.
To make a biodiesel mixture containing 0.90% water, 0.50 g deionized water was added to the remaining 55.0 g 1,4-CHDM/DE/biodiesel mixture and mixed with a magnetic stirrer. The mixture became cloudy when stirred and also contained visible water droplets. The mixture was allowed to sit undisturbed for 3 days, during which time a white aqueous layer appeared on the bottom and the biodiesel (top layer) still remained cloudy. The mixture was centrifuged to separate as much water as possible from the biodiesel. […] The 1,4-CHDM/DE/biodiesel mixtures before and after water extraction and the bottom aqueous layer were analyzed by gas chromatography for 1,4-CHDM. […]

Compound	MIC 30 DAYS [1] [wt %]	MLC 30 DAYS [1] [wt %]	MIC 30 DAYS [2] [wt %]	MLC 30 DAYS [2] [wt %]	MIC 30 DAYS [3] [wt %]	MLC 30 DAYS [3] [wt %]	MIC 30 DAYS [4] [wt %]	MLC 30 DAYS [4] [wt %]	MIC 30 DAYS [5] [wt %]	MLC 30 DAYS [5] [wt %]	MIC 30 DAYS [6] [wt %]	MLC 30 DAYS [6] [wt %]	1,4-CHDM content of the aqueous bottom layer [7] [wt %]
OCC1CCC(CO)CC1 (stereo not shown) [1,4-CHDM, 1,4-cyclohexanedimethanol]	2.5	>20	2.5	>20	5	>20	2.5	>20	2.5	20	2.5	20	0.38
CC(O)CO (stereo not shown) [PG, propylene glycol]	20	>20	20	>20	20	>20	20	>20	20	>20	10	>20	
